Assay results from US9409952B2, “Peptide-compound cyclization method” (Chugai Seiyaku Kabushiki Kaisha, priority 2011, dated 2016).
Starred links: 1 amine or outer side, 2 acyl side, 3 side chain; linkers in the order of their positions; H or OH if unused. Positions of bridges follow the written chain, without caps; N, C: chain ends. Non-standard residues stand in square brackets, D forms with d. Residues, ends and D or L forms follow the SMILES beside them. *: point of attachment. NMeF = CN[C@@H](Cc1ccccc1)C(=O)O; NMeβAla = CN(CCC(=O)[*:2])[*:1]; NMeL = CN[C@@H](CC(C)C)C(=O)O; NMeV = CN[C@H](C(=O)O)C(C)C; NMeA = CN[C@@H](C)C(=O)O; Piperidide = C1CCN(*)CC1; dNMeA = CN[C@H](C)C(=O)O; Sar = CNCC(=O)O

Key:
[1] = PAMPA (parallel artificial membrane permeability assay); type: in vitro ADME; settings: PAMPA; membrane permeation rate (Pe); 50 mM MOPSO buffer pH 6.5 with 5.0% glycocholic acid, 37° C., 18 hours; read-out: iPAMPA Pe
Summary of the method: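 Artificial membrane was 10% (w/v) egg lecithin plus 0.5% (w/v) cholesterol in dodecane on a PVDF filter. A 10 mM DMSO stock was added at 0.5% (v/v) to donor buffer (50 mM MOPSO, pH 6.5, 5.0% glycocholic acid). After 18 h at 37 °C, LC/MS or LC/UV gave donor and acceptor levels for Pe.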

[2] = Metabolic stability in human hepatic microsome; type: in vitro ADME; settings: microsomes, pH 7.4; human hepatic microsome, NADPH(+); read-out: CL NADPH(+)

| Structure (SMILES) | Papp at 18 hours, 50 µM [1] | microsomal CLint at 1 uM [2] |
| --- | --- | --- |
| CC(C)C[C@H]1C(=O)N(C)[C@@H](C)C(=O)N(C)[C@@H](Cc2ccccc2)C(=O)N[C@@H]([C@@H](C)O)C(=O)N(C)[C@@H](C)C(=O)N(C)[C@@H](Cc2ccccc2)C(=O)N(C)[C@@H](C)C(=O)N[C@H](C(=O)N(C)[C@@H](Cc2ccccc2)C(=O)N[C@@H](C)C(=O)N2CCCCC2)CC(=O)N(C)[C@@H](C)C(=O)N[C@@H](C)C(=O)N(C)[C@@H](C)C(=O)N1C [DP-445] ([NMeA]A[NMeA][NMeL][NMeA][NMeF]T[NMeA][NMeF][NMeA]D[NMeF]A-Piperidide; lactam N-11) | 110 nm/s | 14 µL/min/mg |
| CC(C)C[C@@H]1NC(=O)[C@H](CC(C)C)N(C)C(=O)CCN(C)C(=O)C[C@@H](C(=O)N(C)[C@@H](Cc2ccccc2)C(=O)N[C@@H](C)C(=O)N2CCCCC2)NC(=O)[C@H](C)N(C)C(=O)[C@H]([C@@H](C)O)NC(=O)[C@H](Cc2ccccc2)NC(=O)[C@H](CC(C)C)N(C)C(=O)CNC(=O)[C@H](Cc2ccccc2)N(C)C1=O [DP-446] ([NMeβAla][NMeL]L[NMeF]G[NMeL]FT[NMeA]D[NMeF]A-Piperidide; lactam N-10) | 400 nm/s | 104 µL/min/mg |
| CC[C@H](C)[C@@H]1NC(=O)[C@H](CC(C)C)N(C)C(=O)[C@H](C(C)C)N(C)C(=O)CCN(C)C(=O)C[C@@H](C(=O)N(C)[C@@H](Cc2ccccc2)C(=O)N[C@@H](C)C(=O)N2CCCCC2)NC(=O)[C@H]([C@@H](C)O)NC(=O)[C@H](Cc2ccccc2)N(C)C(=O)[C@H](C)N(C)C(=O)[C@H](CC(C)C)NC(=O)[C@H](C(C)C)N(C)C1=O [DP-447] ([NMeβAla][NMeV][NMeL]I[NMeV]L[NMeA][NMeF]TD[NMeF]A-Piperidide; lactam N-10) | 330 nm/s | 159 µL/min/mg |
| CC(C)C[C@H]1C(=O)N(C)[C@@H](C)C(=O)N[C@@H](C(C)C)C(=O)N[C@H](C(=O)N(C)[C@@H](Cc2ccccc2)C(=O)N[C@@H](C)C(=O)N2CCCCC2)CC(=O)N(C)CCC(=O)N(C)[C@@H](C(C)C)C(=O)N(C)[C@@H](C)C(=O)N[C@@H](Cc2ccccc2)C(=O)N[C@@H]([C@@H](C)O)C(=O)N(C)[C@@H](C)C(=O)N1C [DP-448] ([NMeβAla][NMeV][NMeA]FT[NMeA][NMeL][NMeA]VD[NMeF]A-Piperidide; lactam N-10) | 62 nm/s | 27 µL/min/mg |
| CC(C)C[C@H]1C(=O)N[C@H](C(=O)N(C)[C@@H](Cc2ccccc2)C(=O)N[C@@H](C)C(=O)N2CCCCC2)CC(=O)N(C)CCC(=O)N(C)[C@@H](C)C(=O)N[C@@H](C(C)C)C(=O)N(C)[C@@H](C(C)C)C(=O)N(C)[C@@H](Cc2ccccc2)C(=O)N(C)CC(=O)N[C@@H]([C@@H](C)O)C(=O)N(C)[C@@H](C)C(=O)N1C [DP-449] ([NMeβAla][NMeA]V[NMeV][NMeF][Sar]T[NMeA][NMeL]D[NMeF]A-Piperidide; lactam N-10) | 60 nm/s | 6 µL/min/mg |
| CC(C)[C@@H]1NC(=O)[C@H](C)N(C)C(=O)[C@H](C(C)C)N(C)C(=O)CCN(C)C(=O)C[C@@H](C(=O)N(C)[C@@H](Cc2ccccc2)C(=O)N(C)[C@@H](Cc2ccccc2)C(=O)N[C@@H](C)C(=O)N2CCCCC2)NC(=O)[C@H](C)N(C)C(=O)[C@H](C)N(C)C(=O)[C@H]([C@@H](C)O)NC(=O)[C@H](C)N(C)C(=O)[C@H](Cc2ccccc2)N(C)C1=O [DP-450] ([NMeβAla][NMeV][NMeA]V[NMeF][NMeA]T[NMeA][NMeA]D[NMeF][NMeF]A-Piperidide; lactam N-10) | 23 nm/s | 17 µL/min/mg |
| CC(C)C[C@@H]1NC(=O)[C@H](CC(C)C)N(C)C(=O)[C@H](CC(C)C)N(C)C(=O)[C@@H](C)N(C)C(=O)C[C@@H](C(=O)N(C)[C@@H](Cc2ccccc2)C(=O)N[C@@H](C)C(=O)N2CCCCC2)NC(=O)[C@H](CC(C)C)N(C)C(=O)[C@H](Cc2ccccc2)NC(=O)[C@H](Cc2ccccc2)N(C)C(=O)[C@H](C)NC(=O)[C@H]([C@@H](C)O)NC1=O [DP-451] ([dNMeA][NMeL][NMeL]LTA[NMeF]F[NMeL]D[NMeF]A-Piperidide; lactam N-10) | 350 nm/s | 14 µL/min/mg |
| CC(C)C[C@H]1C(=O)NCC(=O)N[C@@H]([C@@H](C)O)C(=O)N(C)[C@@H](C(C)C)C(=O)N[C@@H](Cc2ccccc2)C(=O)N[C@H](C(=O)N(C)[C@@H](Cc2ccccc2)C(=O)N(C)[C@@H](Cc2ccccc2)C(=O)N[C@@H](C)C(=O)N2CCCCC2)CC(=O)N(C)[C@H](C)C(=O)N(C)[C@@H](C)C(=O)N[C@@H](C(C)C)C(=O)N(C)[C@@H](Cc2ccccc2)C(=O)N1C [DP-452] ([dNMeA][NMeA]V[NMeF][NMeL]GT[NMeV]FD[NMeF][NMeF]A-Piperidide; lactam N-10) | 220 nm/s | 21 µL/min/mg |
| CC[C@H](C)[C@@H]1NC(=O)[C@H](C)N(C)C(=O)[C@H]([C@@H](C)O)NC(=O)[C@H](CC(C)C)N(C)C(=O)[C@H](Cc2ccccc2)NC(=O)[C@H](C(C)C)N(C)C(=O)[C@@H](C)N(C)C(=O)C[C@@H](C(=O)N(C)[C@@H](Cc2ccccc2)C(=O)N[C@@H](C)C(=O)N2CCCCC2)NC(=O)[C@H](C)N(C)C(=O)[C@H](CC(C)C)N(C)C1=O [DP-453] ([dNMeA][NMeV]F[NMeL]T[NMeA]I[NMeL][NMeA]D[NMeF]A-Piperidide; lactam N-10) | 250 nm/s | 64 µL/min/mg |
| CC[C@H](C)[C@@H]1NC(=O)[C@H](C(C)C)N(C)C(=O)[C@H](CC(C)C)N(C)C(=O)[C@H](Cc2ccccc2)NC(=O)[C@@H](C)N(C)C(=O)C[C@@H](C(=O)N(C)[C@@H](Cc2ccccc2)C(=O)N(C)[C@@H](Cc2ccccc2)C(=O)N[C@@H](C)C(=O)N2CCCCC2)NC(=O)[C@H](C)N(C)C(=O)[C@H]([C@@H](C)O)NC(=O)[C@H](CC(C)C)N(C)C(=O)CN(C)C1=O [DP-454] ([dNMeA]F[NMeL][NMeV]I[Sar][NMeL]T[NMeA]D[NMeF][NMeF]A-Piperidide; lactam N-10) | 140 nm/s | 50 µL/min/mg |
| CC[C@H](C)[C@@H]1NC(=O)[C@H](C)N(C)C(=O)[C@H](Cc2ccccc2)N(C)C(=O)[C@@H](C)N(C)C(=O)C[C@@H](C(=O)N(C)[C@@H](Cc2ccccc2)C(=O)N(C)[C@@H](Cc2ccccc2)C(=O)N[C@@H](C)C(=O)N2CCCCC2)NC(=O)[C@H](C)N(C)C(=O)[C@H]([C@@H](C)O)NC(=O)[C@H](C)N(C)C(=O)[C@H](CC(C)C)N(C)C(=O)[C@H](C)N(C)C1=O [DP-455] ([dNMeA][NMeF][NMeA]I[NMeA][NMeL][NMeA]T[NMeA]D[NMeF][NMeF]A-Piperidide; lactam N-10) | 150 nm/s | 17 µL/min/mg |
| CC(C)C[C@H]1C(=O)N[C@@H](Cc2ccccc2)C(=O)N(C)[C@@H](C(C)C)C(=O)N[C@@H]([C@@H](C)O)C(=O)N[C@H](C(=O)N(C)[C@@H](Cc2ccccc2)C(=O)N(C)[C@@H](Cc2ccccc2)C(=O)N[C@@H](C)C(=O)N2CCCCC2)CC(=O)N(C)[C@@H](C)C(=O)N(C)[C@@H](C)C(=O)N[C@@H](C(C)C)C(=O)N(C)[C@@H](Cc2ccccc2)C(=O)NCC(=O)N1C [DP-456] ([NMeA][NMeA]V[NMeF]G[NMeL]F[NMeV]TD[NMeF][NMeF]A-Piperidide; lactam N-10) | 410 nm/s | 29 µL/min/mg |
| CC(C)[C@@H]1NC(=O)[C@H](C)N(C)C(=O)[C@H](C)N(C)C(=O)[C@H](Cc2ccccc2)N(C)C(=O)CNC(=O)[C@H]([C@@H](C)O)NC(=O)[C@H](C(C)C)N(C)C(=O)[C@H](C)NC(=O)[C@H](C)N(C)C(=O)C[C@@H](C(=O)N(C)[C@@H](Cc2ccccc2)C(=O)N(C)[C@@H](Cc2ccccc2)C(=O)N[C@@H](C)C(=O)N2CCCCC2)NC1=O [DP-457] ([NMeA]A[NMeV]TG[NMeF][NMeA][NMeA]VD[NMeF][NMeF]A-Piperidide; lactam N-10) | 100 nm/s | 14 µL/min/mg |
| CC(C)C[C@H]1C(=O)N[C@@H](C)C(=O)N(C)[C@@H](C)C(=O)N[C@H](C(=O)N(C)[C@@H](Cc2ccccc2)C(=O)N[C@@H](C)C(=O)N2CCCCC2)CC(=O)N(C)[C@@H](C)C(=O)N(C)[C@@H](C(C)C)C(=O)N(C)[C@@H](C)C(=O)N[C@@H]([C@@H](C)O)C(=O)N(C)[C@@H](C)C(=O)N[C@@H](Cc2ccccc2)C(=O)N1C [DP-458] ([NMeA][NMeV][NMeA]T[NMeA]F[NMeL]A[NMeA]D[NMeF]A-Piperidide; lactam N-10) | 77 nm/s | 10 µL/min/mg |
| CC[C@H](C)[C@@H]1NC(=O)[C@H](CC(C)C)N(C)C(=O)CN(C)C(=O)[C@H]([C@@H](C)O)NC(=O)[C@H](C)N(C)C(=O)[C@H](Cc2ccccc2)NC(=O)[C@H](CC(C)C)N(C)C(=O)[C@H](C)N(C)C(=O)C[C@@H](C(=O)N(C)[C@@H](Cc2ccccc2)C(=O)N(C)[C@@H](Cc2ccccc2)C(=O)N[C@@H](C)C(=O)N2CCCCC2)NC(=O)[C@H](C(C)C)N(C)C1=O [DP-459] ([NMeA][NMeL]F[NMeA]T[Sar][NMeL]I[NMeV]D[NMeF][NMeF]A-Piperidide; lactam N-10) | 190 nm/s | 143 µL/min/mg |
| CC(C)[C@@H]1NC(=O)[C@H](C)N(C)C(=O)[C@H](Cc2ccccc2)N(C)C(=O)[C@H](C)N(C)C(=O)[C@H]([C@@H](C)O)NC(=O)[C@H](C)N(C)C(=O)[C@H](C)N(C)C(=O)C[C@@H](C(=O)N(C)[C@@H](Cc2ccccc2)C(=O)N(C)[C@@H](Cc2ccccc2)C(=O)N[C@@H](C)C(=O)N2CCCCC2)NC(=O)[C@H](C)N(C)C(=O)[C@H](C)N(C)C1=O [DP-460] ([NMeA][NMeA]T[NMeA][NMeF][NMeA]V[NMeA][NMeA]D[NMeF][NMeF]A-Piperidide; lactam N-10) | 51 nm/s | 17 µL/min/mg |
